Measured values: patent publication US6908745B2, “Gamma sterilizable culture medium for the identification of yeasts and fungi” (Biotest AG, priority 2001, dated 2005)

System: bacteria
Assay: Antibacterial effect of antibiotics after γ-radiation
Details: γ-radiation with 25 kGray
Procedure: In the pharmaceuticals industry are sought γ-sterilized media for use in clean room areas and isolators. These clean room areas must be monitored for microbial contamination, and the product (that is, the microbiological nutrient medium) itself, with which this monitoring is carried out, should not introduce any contamination, but be sterile. The microbiological media are not completely sterile after autoclaving and filling into, for example, Petri dishes or other agar carriers, but have contamination rates in the order of magnitude of 0.1 to approx. 1%. Only as a result of an additional γ-sterilization (or β-sterilization) with high-energy radiation are killed the residual existing contaminations and a sterile product is obtained. However, many antibiotics are destroyed as a result of the γ-sterilization, so that afterward in selective media for yeasts and fungi whose selectivity is based on the addition of antibiotics, this selectivity no longer exists.

| Compound | antibacterial effect after γ-radiation |
| --- | --- |
| penicillin | essentially reduced |
| O=C(N[C@H](CO)[C@H](O)c1ccc([N+](=O)[O-])cc1)C(Cl)Cl [chloramphenicol] | completely destroyed |
